{"source": "patent US6958141B2", "about": "“Rhenium and technetium complexes containing a hypoxia-localizing moiety” (Bracco International B.V., priority 1991, dated 2005)", "key": {"[1]": {"test": "Biodistribution of ^99mTc-complexes in normal (normoxic) Sprague-Dawley rats", "type": "in vivo", "conditions": "MEAN n=4", "description": "Twelve Sprague-Dawley rats were anesthetized with Nembutal (50 mg/kg) and injected with 0.1 mL (20 μCi) of radioactivity via the jugular vein. At 1 minute, 5 minutes and 60 minutes after administration of the radiotracers (n=4 for all time points), the animals were sacrificed by exsanguination, and the target tissues removed, weighed and assayed for radioactivity. The rats were allowed to respire room air throughout the course of the study."}, "hypoxic border zone": {"test_system": "hypoxic border zone", "test": "Rat focal cerebral ischemia model (MCA occlusion), double-label autoradiography", "type": "in vivo, spontaneously hypertensive rats (SHR)", "conditions": "SHR, injected 1 hour or five days after MCA occlusion, both time points", "description": "A model of focal cerebral ischemia involving tandem occlusion of the internal carotid artery and the ipsilateral middle cerebral artery (MCA) in spontaneously hypertensive rats (SHR) was characterized using the double-label autoradiography procedure described in Example 10. […] Following surgery, which was performed under Halothane anesthesia, the rats were allowed to recover and one hour after the MCA occlusion, ^14C-deoxyglucose was injected as an IV bolus and timed arterial samples were obtained. Twenty-five minutes after ^14C-deoxyglucose injection, ^99mTcCl(DMG)32MP was injected as an IV bolus and the rat was sacrificed 15 seconds later. The brain was rapidly removed and sections and autoradiograms were obtained as described in Example 10. As found in Example 10 for the rabbit LAD occlusion model, the ischemic territory was bordered by a rim of tissue in which glycolysis was elevated. […] Nevertheless, it was clear that the ischemic region is surrounded by a border zone of increased glycolysis. In a second series of experiments, the ^99mTc complex of the ligand described in Example 1 and ^14C-deoxyglucose were co-injected 1 hour or five days after MCA occlusion."}, "[2]": {"test_system": "hypoxic ischemic border zone", "test": "Rabbit focal myocardial ischemia model (LAD occlusion), double-label autoradiography", "type": "in vivo", "conditions": "permanent LAD coronary artery ligation, intravenous tracer, heart sections, listed as 99mTc complex of the ligand described in Example 1", "description": "A model of focal myocardial ischemia in the rabbit was developed, using permanent ligation of the left anterior descending (LAD) coronary artery. The model consisted of two studies. In the first, relative regional myocardial blood flow (MBF) and relative regional myocardial rate of glucose metabolism (MMRgl) were determined by autoradiography using a double-label study with the flow tracer ^99mTcCl(CDO)3MeB (R. K. Narra et al., J. Nucl. Med., 1989; 30:1830-1837) and ^14C-deoxy-glucose for MMRgl (L. Sokoloff et al., J. Neurochem., 1977, 28, 897-916). ^14C-deoxyglucose and the ^99mTc-hypoxia-localizing tracer were administered to a second group of rabbits with LAD coronary artery occlusion.\nAfter the surgical preparation and 20 minutes of LAD occlusion, ^14C-deoxyglucose (130-150 μCi) was injected as an intravenous bolus, and timed arterial blood samples were obtained. Twenty-five minutes later, ^99mTcCl(CDO)3MeB (10-12 mCi) was administered intravenously. Five minutes later, the rabbits were sacrificed by intravenous injection of Nembutal and potassium chloride. The heart was excised, frozen in liquid Freon-22, and 20 μm coronal sections obtained with a Microtome. Autoradiographs were obtained on all sections. For the first exposure (˜14 hours duration) of Kodak XAR film, extra heavy duty aluminum foil was interposed between the tissue and film to block completely the radiation emanating from ^14C to obtain the MBF information derived from ^99mTcCl(CDO)3MeB alone. After three days (to allow for decay of ^99mTc); a second autoradiograph was obtained without foil. The second exposure lasted 6-8 days, and,provided an image of the regional distribution of ^14C-deoxyglucose.\nIn a separate experiment using the rabbit LAD occlusion model and the double-label autoradiography procedures described above, the performance of the ^99mTc complex of the ligand described in Example 1 was compared to that of ^14C-misonidazole."}, "[3]": {"conditions": "1 Min. after jugular vein injection"}, "[4]": {"conditions": "5 Min. after jugular vein injection"}, "[5]": {"conditions": "60 Min. after jugular vein injection"}}}
{"substance": "[^99mTc]Oxo[[3,3,9,9-tetramethyl-1-(2-nitro-1H-imidazo-1-yl)-4,8-diazaundecane-2,10-dione dioximato]-(3-)-N,N′,N″,N′″]technetium(V) [^99mTc complex from ligand in Ex. 1]", "values": [{"measurement": "Percent ID/g Bladder", "setting": "[1]; [3]", "value": 0.15, "unit": "Percent ID/g"}, {"measurement": "Percent ID/g Blood", "setting": "[1]; [3]", "value": 0.47, "unit": "Percent ID/g"}, {"measurement": "Percent ID/g Bone", "setting": "[1]; [3]", "value": 0.37, "unit": "Percent ID/g"}, {"measurement": "Percent ID/g Brain", "setting": "[1]; [3]", "value": 0.30, "unit": "Percent ID/g"}, {"measurement": "Percent ID/g Heart", "setting": "[1]; [3]", "value": 1.32, "unit": "Percent ID/g"}, {"measurement": "Percent ID/g Kidneys", "setting": "[1]; [3]", "value": 2.59, "unit": "Percent ID/g"}, {"measurement": "Percent ID/g Liver", "setting": "[1]; [3]", "value": 2.06, "unit": "Percent ID/g"}, {"measurement": "Percent ID/g Lower Intestine", "setting": "[1]; [3]", "value": 0.50, "unit": "Percent ID/g"}, {"measurement": "Percent ID/g Lungs", "setting": "[1]; [3]", "value": 0.71, "unit": "Percent ID/g"}, {"measurement": "Percent ID/g Muscle", "setting": "[1]; [3]", "value": 0.25, "unit": "Percent ID/g"}, {"measurement": "Percent ID/g Spleen", "setting": "[1]; [3]", "value": 0.84, "unit": "Percent ID/g"}, {"measurement": "Percent ID/g Stomach", "setting": "[1]; [3]", "value": 0.67, "unit": "Percent ID/g"}, {"measurement": "Percent ID/g Thymus", "setting": "[1]; [3]", "value": 0.55, "unit": "Percent ID/g"}, {"measurement": "Percent ID/g Thyroid", "setting": "[1]; [3]", "value": 0.65, "unit": "Percent ID/g"}, {"measurement": "Percent ID/g Upper Intestine", "setting": "[1]; [3]", "value": 1.13, "unit": "Percent ID/g"}, {"measurement": "Percent ID/g Bladder", "setting": "[1]; [4]", "value": 0.68, "unit": "Percent ID/g"}, {"measurement": "Percent ID/g Blood", "setting": "[1]; [4]", "value": 0.36, "unit": "Percent ID/g"}, {"measurement": "Percent ID/g Bone", "setting": "[1]; [4]", "value": 0.23, "unit": "Percent ID/g"}, {"measurement": "Percent ID/g Brain", "setting": "[1]; [4]", "value": 0.11, "unit": "Percent ID/g"}, {"measurement": "Percent ID/g Heart", "setting": "[1]; [4]", "value": 0.34, "unit": "Percent ID/g"}, {"measurement": "Percent ID/g Kidneys", "setting": "[1]; [4]", "value": 1.15, "unit": "Percent ID/g"}, {"measurement": "Percent ID/g Liver", "setting": "[1]; [4]", "value": 3.63, "unit": "Percent ID/g"}, {"measurement": "Percent ID/g Lower Intestine", "setting": "[1]; [4]", "value": 0.40, "unit": "Percent ID/g"}, {"measurement": "Percent ID/g Lungs", "setting": "[1]; [4]", "value": 0.39, "unit": "Percent ID/g"}, {"measurement": "Percent ID/g Muscle", "setting": "[1]; [4]", "value": 0.14, "unit": "Percent ID/g"}, {"measurement": "Percent ID/g Spleen", "setting": "[1]; [4]", "value": 0.45, "unit": "Percent ID/g"}, {"measurement": "Percent ID/g Stomach", "setting": "[1]; [4]", "value": 0.56, "unit": "Percent ID/g"}, {"measurement": "Percent ID/g Thymus", "setting": "[1]; [4]", "value": 0.25, "unit": "Percent ID/g"}, {"measurement": "Percent ID/g Thyroid", "setting": "[1]; [4]", "value": 0.77, "unit": "Percent ID/g"}, {"measurement": "Percent ID/g Upper Intestine", "setting": "[1]; [4]", "value": 0.98, "unit": "Percent ID/g"}, {"measurement": "Percent ID/g Bladder", "setting": "[1]; [5]", "value": 2.84, "unit": "Percent ID/g"}, {"measurement": "Percent ID/g Blood", "setting": "[1]; [5]", "value": 0.28, "unit": "Percent ID/g"}, {"measurement": "Percent ID/g Bone", "setting": "[1]; [5]", "value": 0.11, "unit": "Percent ID/g"}, {"measurement": "Percent ID/g Brain", "setting": "[1]; [5]", "value": 0.02, "unit": "Percent ID/g"}, {"measurement": "Percent ID/g Heart", "setting": "[1]; [5]", "value": 0.09, "unit": "Percent ID/g"}, {"measurement": "Percent ID/g Kidneys", "setting": "[1]; [5]", "value": 0.45, "unit": "Percent ID/g"}, {"measurement": "Percent ID/g Liver", "setting": "[1]; [5]", "value": 2.45, "unit": "Percent ID/g"}, {"measurement": "Percent ID/g Lower Intestine", "setting": "[1]; [5]", "value": 0.36, "unit": "Percent ID/g"}, {"measurement": "Percent ID/g Lungs", "setting": "[1]; [5]", "value": 0.16, "unit": "Percent ID/g"}, {"measurement": "Percent ID/g Muscle", "setting": "[1]; [5]", "value": 0.05, "unit": "Percent ID/g"}, {"measurement": "Percent ID/g Spleen", "setting": "[1]; [5]", "value": 0.23, "unit": "Percent ID/g"}, {"measurement": "Percent ID/g Stomach", "setting": "[1]; [5]", "value": 1.80, "unit": "Percent ID/g"}, {"measurement": "Percent ID/g Thymus", "setting": "[1]; [5]", "value": 0.05, "unit": "Percent ID/g"}, {"measurement": "Percent ID/g Thyroid", "setting": "[1]; [5]", "value": 0.15, "unit": "Percent ID/g"}, {"measurement": "Percent ID/g Upper Intestine", "setting": "[1]; [5]", "value": 4.60, "unit": "Percent ID/g"}, {"measurement": "uptake in brain autoradiograms", "setting": "hypoxic border zone", "value": "increased uptake in the hypoxic border zone relative to surrounding normoxic tissue"}, {"measurement": "regional myocardial distribution pattern (autoradiography)", "setting": "[2]", "value": "high uptake in the hypoxic border zone of the ischemic territory and low uptake in normoxic regions"}]}
